Reference: paper PMC11952222, “Development and comparison of single FLT3-inhibitors to dual FLT3/TAF1-inhibitors as an anti-leukemic approach” (PLOS One, 2025)
Where “and” joins values, the source holds several entries; their conditions need not be identical. Equal entries are not always repeated. Where two headings read alike, the source gives them in different places.

What was measured:
FLT3 [1] = molecular target: T1, FLT3 (Homo sapiens, UniProt P36888); assay: Eurofins/DiscoverX KdELECT, FLT3 kinase IC50; type: binding; settings: 11-point 3-fold dilution, top concentration 10,000 nM
T1 construct: purchased Eurofins/DiscoverX
T1 sequence (P36888 27-993): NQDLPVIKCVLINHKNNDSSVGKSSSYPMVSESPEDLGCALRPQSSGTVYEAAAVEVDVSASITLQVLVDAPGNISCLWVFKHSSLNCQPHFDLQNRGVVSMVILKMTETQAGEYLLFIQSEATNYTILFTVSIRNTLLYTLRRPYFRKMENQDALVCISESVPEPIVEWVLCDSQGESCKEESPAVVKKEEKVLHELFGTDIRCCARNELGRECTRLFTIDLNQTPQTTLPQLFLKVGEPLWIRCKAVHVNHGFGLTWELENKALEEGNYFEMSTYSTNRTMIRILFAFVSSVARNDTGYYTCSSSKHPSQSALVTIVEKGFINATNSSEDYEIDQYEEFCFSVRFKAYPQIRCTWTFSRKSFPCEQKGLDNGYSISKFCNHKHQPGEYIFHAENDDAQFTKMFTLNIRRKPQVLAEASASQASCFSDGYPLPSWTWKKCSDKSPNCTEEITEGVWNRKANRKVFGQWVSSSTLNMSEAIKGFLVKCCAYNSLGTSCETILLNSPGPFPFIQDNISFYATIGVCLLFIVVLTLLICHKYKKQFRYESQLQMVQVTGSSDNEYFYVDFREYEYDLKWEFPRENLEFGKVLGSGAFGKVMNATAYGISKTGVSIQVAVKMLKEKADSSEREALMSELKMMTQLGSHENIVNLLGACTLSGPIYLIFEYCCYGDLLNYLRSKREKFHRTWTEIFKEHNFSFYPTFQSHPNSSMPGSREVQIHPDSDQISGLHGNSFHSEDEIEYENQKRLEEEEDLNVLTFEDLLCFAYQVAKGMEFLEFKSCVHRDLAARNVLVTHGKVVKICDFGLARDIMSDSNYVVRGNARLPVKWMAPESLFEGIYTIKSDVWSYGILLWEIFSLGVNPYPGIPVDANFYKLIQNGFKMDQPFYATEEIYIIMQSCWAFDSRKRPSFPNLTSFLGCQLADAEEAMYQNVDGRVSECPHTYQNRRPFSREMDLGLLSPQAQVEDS
Description: (§1) The 3i-compounds underwent activity testing against a panel of 32 bromodomains using the Eurofins/DiscoverX bromoMAX assay, with specific focus on TAF1(2) bromodomain assessed by the KdELECT assay. In a similar manner, kinase activity was evaluated using a panel of 97 kinase proteins using the Eurofins/DiscoverX scanELECT and KdELECT assays, with specific focus on FLT3 protein. An 11-point 3-fold serial dilution of each test compound was prepared in 100% DMSO at 100x final test concentration and subsequently diluted to final concentration (DMSO 1%). […] Percent control was calculated using the following formula: ((test compound signal – positive control signal)/ (negative control signal – positive control signal)) × 100.

TAF1(2) bromodomain = molecular target: T2, TAF1(2) bromodomain (Homo sapiens, UniProt P21675); assay: Eurofins/DiscoverX KdELECT, TAF1(2) bromodomain IC50; type: binding; settings: kdELECT, 11-point 3-fold dilution, top concentration 10,000 nM; read-out: TAF1(2) IC50
T2 construct: with specific focus on TAF1(2) bromodomain assessed by the KdELECT assay; purchased Eurofins/DiscoverX
T2 sequence (P21675 1519-1628 limits assumed): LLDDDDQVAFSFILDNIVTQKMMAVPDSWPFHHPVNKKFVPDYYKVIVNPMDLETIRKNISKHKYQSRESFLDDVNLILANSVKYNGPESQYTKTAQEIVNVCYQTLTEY
Description: as §1

TAF1(2) = molecular target: T3, TAF1(2) (Homo sapiens, UniProt P21675); assay: Eurofins/DiscoverX cell free bromodomain assay, percent control; type: binding; settings: for per_control_1000nM TAF1(2): 1000 nM compound; for per_control_10000nM TAF1(2): 10000 nM compound
T3 construct: with specific focus on TAF1(2) bromodomain assessed by the KdELECT assay; purchased Eurofins/DiscoverX
T3 sequence (P21675 1519-1628 limits assumed): T2 sequence (P21675 1519-1628 limits assumed)
Description: as §1

FLT3 [2] = molecular target: T1, FLT3; assay: Eurofins/DiscoverX cell free kinase assay, percent control; type: binding; settings: for per_control_1000nM FLT3: 1000 nM compound; for per_control_10000nM FLT3: 10000 nM compound
Description: as §1
(§2) Fig 2 Results of 3i-compound series at concentrations of 1 µM and 10 µM in a cell free Eurofins/DiscoverX assay for kinase and bromodomain proteins. (A) Single-targeted compounds with tyrosine kinase activity but without bromodomain activity. (B) Dual-targeted compounds with both tyrosine kinase and bromodomain activity.

FLT3(ITD) = assay: as above; type: binding; settings: for per_control_1000nM FLT3(ITD): 1000 nM compound; for per_control_10000nM FLT3(ITD): 10000 nM compound
Description: as §1, §2

FLT3(ITD,D835V) = assay: as above; type: binding; settings: for per_control_1000nM FLT3(ITD,D835V): 1000 nM compound; for per_control_10000nM FLT3(ITD,D835V): 10000 nM compound
Description: as §1, §2

FLT3(ITD,F691L) = assay: as above; type: binding; settings: for per_control_1000nM FLT3(ITD,F691L): 1000 nM compound; for per_control_10000nM FLT3(ITD,F691L): 10000 nM compound
Description: as §1, §2

KIT = molecular target: T4, KIT (Homo sapiens, UniProt P10721); assay: as above; type: binding; settings: for per_control_1000nM KIT: 1000 nM compound; for per_control_10000nM KIT: 10000 nM compound
T4 construct: purchased Eurofins/DiscoverX
Description: as §1, §2

PDGFRB = molecular target: T5, PDGFRB (Homo sapiens, UniProt P09619); assay: as above; type: binding; settings: for per_control_1000nM PDGFRB: 1000 nM compound; for per_control_10000nM PDGFRB: 10000 nM compound
T5 construct: purchased Eurofins/DiscoverX
Description: as §1, §2

DU4475 cells = assay: Cell viability, CellTiter Glo, DU4475; type: cell-based; settings: 72h
Description: (§3) Drug sensitivity and resistance testing in MOLM13, DU4475, HDQP1, and IGROV1 cells was conducted at the Finnish Institute for Molecular Medicine (FIMM), University of Helsinki. In brief, the effects of compounds on cell viability and cell death were quantified with Cell-Titer Glo (Promega) and CellTox Green (Promega), respectively. Compounds or vehicle control were included in cell culture medium at described concentrations for 72h using an automated liquid dispenser in 384-well format. For KASUMI-1 experiments, cells were grown in 96-well plates and similarly incubated with compounds at indicated concentrations for 72h in RPMI + 10% FCS + Gentamicin, followed by lysis and quantification of cell viability with Cell-Titer Glo (Promega).
(§4) Raw values from viability and toxicity assays were normalized to DMSO and plotted to heat maps in R using pheatmap (RRID:SCR_016418). Dose-response curves were generated using the drc package in R [40]. In brief, nonlinear modelling was performed to calculate IC50 values for each compound where possible and resulting curves from drc and experimental values were plotted using ggplot2 (RRID:SCR_014601).

HDQP1 cells = assay: Cell viability, CellTiter Glo, HDQP1; type: cell-based
Description: as §3, §4

IGROV1 cells = assay: Cell viability, CellTiter Glo, IGROV1; type: cell-based
Description: as §3, §4

[3] = one independent experiment per value, read-out: DU4475 IC50, individual dose-response curve (CellTiter Glo)
[4] = Homo sapiens, DU-4475, 72 h, mean of n = 3 independent experiments, read-out: DU4475 IC50 (CellTiter Glo)
[5] = Homo sapiens, DU-4475, 72 h, one independent experiment per value, read-out: DU4475 IC50, individual dose-response curve (CellTiter Glo)
[6] = 72h, mean of n = 3 independent experiments, read-out: HDQP1 IC50 (CellTiter Glo)
[7] = 72h, one independent experiment per value, read-out: HDQP1 IC50, individual dose-response curve (CellTiter Glo)
[8] = Homo sapiens, HDQ-P1, 72 h, one independent experiment per value, read-out: HDQP1 IC50, individual dose-response curve (CellTiter Glo)
[9] = 72h, one independent experiment per value, read-out: IGROV1 IC50, individual dose-response curve (CellTiter Glo)
[10] = Homo sapiens, IGROV-1, 72 h, mean of n = 3 independent experiments, read-out: IGROV1 IC50 (CellTiter Glo)
[11] = Homo sapiens, IGROV-1, 72 h, one independent experiment per value, read-out: IGROV1 IC50, individual dose-response curve (CellTiter Glo)

T5 sequence (P09619 33-1106): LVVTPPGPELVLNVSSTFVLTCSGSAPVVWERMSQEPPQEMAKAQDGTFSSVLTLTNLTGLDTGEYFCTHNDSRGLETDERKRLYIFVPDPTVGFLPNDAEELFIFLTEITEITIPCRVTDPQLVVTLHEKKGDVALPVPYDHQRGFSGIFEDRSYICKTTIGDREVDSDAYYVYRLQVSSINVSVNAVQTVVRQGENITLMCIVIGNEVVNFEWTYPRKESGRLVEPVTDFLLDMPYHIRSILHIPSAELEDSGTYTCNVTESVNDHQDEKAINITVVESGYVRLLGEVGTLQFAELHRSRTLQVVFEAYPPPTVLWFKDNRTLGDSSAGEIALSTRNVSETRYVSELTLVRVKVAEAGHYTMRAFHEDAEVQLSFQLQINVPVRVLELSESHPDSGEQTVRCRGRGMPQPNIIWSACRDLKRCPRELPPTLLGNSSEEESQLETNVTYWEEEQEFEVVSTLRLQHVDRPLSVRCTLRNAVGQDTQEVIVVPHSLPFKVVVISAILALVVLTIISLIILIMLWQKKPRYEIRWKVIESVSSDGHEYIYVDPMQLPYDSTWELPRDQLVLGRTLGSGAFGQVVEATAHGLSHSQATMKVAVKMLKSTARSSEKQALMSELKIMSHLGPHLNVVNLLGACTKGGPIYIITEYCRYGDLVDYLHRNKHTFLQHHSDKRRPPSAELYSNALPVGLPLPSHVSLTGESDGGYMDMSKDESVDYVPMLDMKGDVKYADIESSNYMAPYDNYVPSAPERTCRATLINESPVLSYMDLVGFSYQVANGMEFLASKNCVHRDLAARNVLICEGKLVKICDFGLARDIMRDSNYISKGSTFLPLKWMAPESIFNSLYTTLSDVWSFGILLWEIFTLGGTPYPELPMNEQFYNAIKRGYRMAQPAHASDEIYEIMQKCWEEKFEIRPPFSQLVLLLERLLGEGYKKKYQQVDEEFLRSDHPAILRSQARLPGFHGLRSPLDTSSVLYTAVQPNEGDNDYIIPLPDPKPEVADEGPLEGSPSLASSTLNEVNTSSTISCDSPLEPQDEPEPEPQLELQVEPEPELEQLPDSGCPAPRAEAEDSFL
T4 sequence (P10721 26-976): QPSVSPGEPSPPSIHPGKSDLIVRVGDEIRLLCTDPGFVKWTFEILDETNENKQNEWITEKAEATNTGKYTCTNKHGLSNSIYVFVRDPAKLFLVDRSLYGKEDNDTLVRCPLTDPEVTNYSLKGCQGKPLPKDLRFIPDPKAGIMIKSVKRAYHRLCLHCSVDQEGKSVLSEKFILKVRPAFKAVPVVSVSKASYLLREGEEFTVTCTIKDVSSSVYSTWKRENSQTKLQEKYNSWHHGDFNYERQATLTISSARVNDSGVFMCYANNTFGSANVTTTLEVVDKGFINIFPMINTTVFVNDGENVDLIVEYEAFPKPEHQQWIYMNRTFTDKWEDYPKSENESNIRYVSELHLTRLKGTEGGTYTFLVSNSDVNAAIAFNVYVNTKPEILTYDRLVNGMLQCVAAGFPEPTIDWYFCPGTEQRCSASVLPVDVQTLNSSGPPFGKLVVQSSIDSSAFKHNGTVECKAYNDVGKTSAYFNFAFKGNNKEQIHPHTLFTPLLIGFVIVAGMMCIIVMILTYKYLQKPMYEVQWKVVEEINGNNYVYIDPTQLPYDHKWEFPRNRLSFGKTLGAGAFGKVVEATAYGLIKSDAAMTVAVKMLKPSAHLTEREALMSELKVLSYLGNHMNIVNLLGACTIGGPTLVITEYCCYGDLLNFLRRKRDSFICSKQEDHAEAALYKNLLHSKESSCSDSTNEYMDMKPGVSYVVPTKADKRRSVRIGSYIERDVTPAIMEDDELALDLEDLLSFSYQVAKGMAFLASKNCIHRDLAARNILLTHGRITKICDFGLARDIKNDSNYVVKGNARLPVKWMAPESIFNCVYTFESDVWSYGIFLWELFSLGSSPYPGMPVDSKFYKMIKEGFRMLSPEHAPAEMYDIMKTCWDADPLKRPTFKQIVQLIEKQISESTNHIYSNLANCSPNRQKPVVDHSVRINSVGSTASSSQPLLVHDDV

Row | SMILES | IC50 (FLT3 [1]) [µM] | IC50 (TAF1(2) bromodomain) | per_control_1000nM TAF1(2) (TAF1(2)) [percent control] | per_control_10000nM TAF1(2) (TAF1(2)) [percent control] | per_control_1000nM FLT3 (FLT3 [2]) [percent control] | per_control_10000nM FLT3 (FLT3 [2]) [percent control] | per_control_1000nM FLT3(ITD) (FLT3(ITD)) [percent control] | per_control_10000nM FLT3(ITD) (FLT3(ITD)) [percent control] | per_control_1000nM FLT3(ITD,D835V) (FLT3(ITD,D835V)) [percent control] | per_control_10000nM FLT3(ITD,D835V) (FLT3(ITD,D835V)) [percent control] | per_control_1000nM FLT3(ITD,F691L) (FLT3(ITD,F691L)) [percent control] | per_control_10000nM FLT3(ITD,F691L) (FLT3(ITD,F691L)) [percent control] | per_control_1000nM KIT (KIT) [percent control] | per_control_10000nM KIT (KIT) [percent control] | per_control_1000nM PDGFRB (PDGFRB) [percent control] | per_control_10000nM PDGFRB (PDGFRB) [percent control] | IC50 (DU4475 cells; [3]) | IC50 (DU4475 cells; [4]) [µM] | IC50 (DU4475 cells; [5]) [µM] | IC50 (HDQP1 cells; [6]) [µM] | further results
1 | Cn1cc(-c2cc(NC(=O)c3ccc(C(C)(C)C)cc3)n[nH]2)ccc1=O [Compound 3i-1248, 4-(tert-butyl)-N-(5-(1-methyl-6-oxo-1,6-dihydropyridin-3-yl)-1H-pyrazol-3-yl)benzamide] | < 1 | 0.0051 µM | 0.3 | 0.05 | 6.7 | 0.15 | 0 | 12 | 5.3 | 0.15 | 29 | 1.9 | 8.2 | 0.1 | 11 | 0.35 | 9.8 µM and 9.5 µM | 9.4 | 8.8 | > 10 | IC50 (HDQP1 cells; 72h, mean of n = 3 independent experiments, listed as 1248, read-out: HDQP1 IC50 (CellTiter Glo)): 20.7 µM; IC50 (HDQP1 cells; [7]): 21.1 µM and 22.1 µM; IC50 (HDQP1 cells; [8]): 18.8 µM; IC50 (IGROV1 cells; [9]): 10.5 µM and 7.7 µM; IC50 (IGROV1 cells; [10]): 10 µM; IC50 (IGROV1 cells; [11]): 11.8 µM
2 | Cc1cc(-c2cc(NC(=O)c3ccc(C(C)(C)C)cc3)[nH]n2)ccn1 [Compound 3i-1246, 4-(tert-butyl)-N-(3-(2-methylpyridin-4-yl)-1H-pyrazol-5-yl)benzamide] | 0.018 | 0.28 µM and 0.26 µM | 4.1 | 3.6 | 0 | 0.2 | 2.7 | 1.2 | 0.55 | 0.2 | 3.3 | 1.6 | 0 | 0 | 0 | 0 | 7.6 µM and 7.8 µM | 7.5 | 7.1 | > 10 | IC50 (HDQP1 cells; [7]): 10.5 µM and 19.5 µM; IC50 (HDQP1 cells; Homo sapiens, HDQ-P1, 72 h, mean of n = 3 independent experiments, read-out: HDQP1 IC50 (CellTiter Glo)): 13.4 µM; IC50 (HDQP1 cells; [8]): 10.1 µM; IC50 (IGROV1 cells; [9]): 11.6 µM and 8.8 µM; IC50 (IGROV1 cells; [10]): 10.9 µM; IC50 (IGROV1 cells; [11]): 12.1 µM
